This is an account of results in patent publication US9567302B2, “Carbamate compounds and of making and using same” (Abide Therapeutics, Inc., priority 2012, dated 2017).

The inhibition is the drop in the measured response relative to a control, in per cent. A lower inhibition goes with little suppression.

Common to all, as to type: biochemical
Design in all cases: from tissue

Assay [1] deals with T1, FAAH (Mus musculus, UniProt O08914).
T1 sequence (O08914 1-579): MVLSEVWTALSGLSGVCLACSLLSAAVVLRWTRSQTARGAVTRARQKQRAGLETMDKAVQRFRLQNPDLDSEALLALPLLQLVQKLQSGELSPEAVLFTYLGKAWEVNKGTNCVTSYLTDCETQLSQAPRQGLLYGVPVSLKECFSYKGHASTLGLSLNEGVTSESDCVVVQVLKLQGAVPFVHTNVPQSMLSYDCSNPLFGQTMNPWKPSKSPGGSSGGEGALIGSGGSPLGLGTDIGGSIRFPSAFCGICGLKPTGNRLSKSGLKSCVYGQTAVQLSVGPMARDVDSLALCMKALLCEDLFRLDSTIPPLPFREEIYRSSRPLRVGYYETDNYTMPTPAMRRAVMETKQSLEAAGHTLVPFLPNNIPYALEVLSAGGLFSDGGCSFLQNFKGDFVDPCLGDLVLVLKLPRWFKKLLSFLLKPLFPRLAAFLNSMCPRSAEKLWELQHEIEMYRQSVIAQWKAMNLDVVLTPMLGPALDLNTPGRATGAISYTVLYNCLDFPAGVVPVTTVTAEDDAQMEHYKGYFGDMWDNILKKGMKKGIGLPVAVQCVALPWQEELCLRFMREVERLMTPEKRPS
The assay is described as follows: In vitro competitive ABPP, % inhibition at fixed concentration, FAAH. The protocol:
(§1) In Vitro Competitive Activity-Based Protein Profiling.
(§2) Proteomes (mouse brain membrane fraction or cell lysates) (50 μL, 1.0 mg/ml total protein concentration) were preincubated with varying concentrations of inhibitors at 37° C. After 30 min, FP-Rh (1.0 μL, 50 μM in DMSO) was added and the mixture was incubated for another 30 min at 37° C. Reactions were quenched with SDS loading buffer (50 μL—4×) and run on SDS-PAGE. Following gel imaging, serine hydrolase activity was determined by measuring fluorescent intensity of gel bands corresponding to MAGL, ABHD6 and FAAH using ImageJ 1.43u software.

Assay [2] addresses T2, ABHD6 (Mus musculus, UniProt Q8R2Y0).
T2 sequence (Q8R2Y0 1-336): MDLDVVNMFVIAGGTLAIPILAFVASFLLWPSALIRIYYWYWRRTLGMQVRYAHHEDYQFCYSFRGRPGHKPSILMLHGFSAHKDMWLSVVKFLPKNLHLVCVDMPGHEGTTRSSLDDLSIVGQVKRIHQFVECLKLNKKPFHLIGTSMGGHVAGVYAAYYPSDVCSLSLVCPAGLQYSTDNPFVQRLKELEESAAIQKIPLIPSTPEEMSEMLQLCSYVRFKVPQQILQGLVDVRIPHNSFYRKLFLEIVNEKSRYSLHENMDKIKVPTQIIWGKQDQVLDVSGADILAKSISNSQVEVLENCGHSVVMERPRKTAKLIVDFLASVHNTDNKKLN
The assay is described as follows: In vitro competitive ABPP, % inhibition at fixed concentration, ABHD6. The procedure:
as §1, §2

In assay [3] the target is T3, MAGL (Mus musculus, UniProt O35678).
T3 sequence (O35678 1-303): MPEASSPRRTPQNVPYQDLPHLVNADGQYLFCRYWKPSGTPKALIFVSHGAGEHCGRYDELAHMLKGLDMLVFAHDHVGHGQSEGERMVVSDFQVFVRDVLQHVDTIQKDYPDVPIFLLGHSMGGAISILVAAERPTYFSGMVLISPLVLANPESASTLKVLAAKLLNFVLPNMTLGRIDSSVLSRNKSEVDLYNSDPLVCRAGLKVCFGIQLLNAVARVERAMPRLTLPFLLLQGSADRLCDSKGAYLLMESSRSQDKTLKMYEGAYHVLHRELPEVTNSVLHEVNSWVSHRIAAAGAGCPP
The experiment in a line: In vitro competitive ABPP, % inhibition at fixed concentration, MAGL. The procedure: as §1, §2

Regarding `Cc1ccc(C(=O)N2CCOCC2)c(CN2CCN(C(=O)ON3C(=O)CCC3=O)CC2)c1` [Example 201, 2,5-Dioxopyrrolidin-1-yl 4-{[5-methyl-2-(morpholine-4-carbonyl)phenyl]methyl}piperazine-1-carboxylate], the inhibition at 1 µM in assay [1], in assay [2] and in assay [3] was less than 25% in each case.

In the case of `C[C@H]1CN(Cc2ccc(N3CCOCC3)cc2F)CCN1C(=O)ON1C(=O)CCC1=O` [Example 88, 2,5-Dioxopyrrolidin-1-yl (2S)-4-{[2-fluoro-4-(morpholin-4-yl)phenyl]methyl}-2-methylpiperazine-1-carboxylate], the inhibition at 1 µM is less than 25% in assay [1], 25 to 75% in assay [2] and 25 to 75% in assay [3].

On to `O=C(ON1C(=O)CCC1=O)N1CCC(N2CCCC2)CC1` [Example 217, 2,5-Dioxopyrrolidin-1-yl 4-(pyrrolidin-1-yl)piperidine-1-carboxylate], for which the inhibition at 10 µM in assay [1], in assay [2] and in assay [3] was less than 25% each time.

Take `O=C(ON1C(=O)CCC1=O)N1CCC(N2CCCCC2)CC1` [Example 218, 2,5-Dioxopyrrolidin-1-yl 4-(piperidine-1-yl)piperidine-1-carboxylate]: the inhibition at 10 µM in assay [1], in assay [2] and in assay [3] was less than 25% each time.

Consider `Cc1nc(CN2CCN(C(=O)ON3C(=O)CCC3=O)CC2)ccc1-c1ccccc1F` [Example 178, 2,5-Dioxopyrrolidin-1-yl 4-{[5-(2-fluorophenyl)-6-methylpyridin-2-yl]methyl}piperazine-1-carboxylate], for which the figures for the inhibition at 1 µM in assay [1], in assay [2] and in assay [3] were less than 25%, 25 to 75% and 25 to 75%, respectively.

For the compound `O=C(ON1C(=O)CCC1=O)N1CCN(C(=O)c2cccc(Cl)c2)CC1` [Example 211, 2,5-Dioxopyrrolidin-1-yl 4-(3-chlorobenzoyl)piperazine-1-carboxylate], the results for the inhibition at 10 µM in assay [1], in assay [2] and in assay [3] were less than 25%, 25 to 75% and 25 to 75%, respectively.

Consider `O=C(ON1C(=O)CCC1=O)N1CCN(Cc2ccc(Cl)c(C(=O)N3CCC3)c2)CC1` [Example 210, 2,5-Dioxopyrrolidin-1-yl 4-{[3-(azetidine-1-carbonyl)-4-chlorophenyl]methyl}piperazine-1-carboxylate], for which the inhibition at 1 µM in assay [1] was less than 25%; in assay [2], 25 to 75%; in assay [3], less than 25%.

Turning to `O=C(ON1C(=O)CCC1=O)N1CCN(Cc2cc(-c3ccccc3)on2)CC1` [Example 137, 2,5-Dioxopyrrolidin-1-yl 4-((5-phenylisoxazol-3-yl)methyl)piperazine-1-carboxylate], the values for the inhibition at 1 µM in assay [1], in assay [2] and in assay [3] were less than 25%, 25 to 75% and 25 to 75%, respectively.

`Cc1ccc(C(=O)N2CCCC2)c(CN2CCN(C(=O)ON3C(=O)CCC3=O)CC2)c1` [Example 202, 2,5-Dioxopyrrolidin-1-yl 4-{[5-methyl-2-(pyrrolidine-1-carbonyl)phenyl]methyl}piperazine-1-carboxylate]: the inhibition at 1 µM in assay [1], in assay [2] and in assay [3] was less than 25% throughout.

`O=C(ON1C(=O)CCC1=O)N1CCC(N2CCCCC2=O)CC1` [Example 220, 2,5-Dioxopyrrolidin-1-yl 4-(2-oxopiperidin-1-yl)piperidine-1-carboxylate]: the inhibition at 10 µM in assay [1] is less than 25%; in assay [2] it was 25 to 75%; in assay [3] it was less than 25%.

As to `CC(C)c1cc(N2CCOCC2)ccc1CN1CCN(C(=O)ON2C(=O)CCC2=O)CC1` [Example 187, 2,5-Dioxopyrrolidin-1-yl 4-{[4-(morpholin-4-yl)-2-(propan-2-yl)phenyl]methyl}piperazine-1-carboxylate], the inhibition at 1 µM was less than 25% in assay [1], 25 to 75% in assay [2] and 25 to 75% in assay [3].

Take `O=C(ON1C(=O)CCC1=O)N1CCN(C(c2cccnc2)c2cccnc2)CC1` [Example 155, 2,5-Dioxopyrrolidin-1-yl 4-(di(pyridin-3-yl)methyl)piperazine-1-carboxylate]: the inhibition at 1 µM was less than 25% in assay [1], less than 25% in assay [2] and 25 to 75% in assay [3].

Regarding `Cc1cccc(-c2ccc(CN3CCN(C(=O)ON4C(=O)CCC4=O)CC3)c(C)n2)c1` [Example 184, 2,5-Dioxopyrrolidin-1-yl 4-{[2-methyl-6-(3-methylphenyl)pyridin-3-yl]methyl}piperazine-1-carboxylate], the inhibition at 1 µM in assay [1] was less than 25%; in assay [2], 25 to 75%; in assay [3], more than 75%.

In the case of `O=C(ON1C(=O)CCC1=O)N1CCN(Cc2ccc(Cl)cc2N2CCN3CCC[C@@H]3C2)CC1` [Example 125, 2,5-Dioxopyrrolidin-1-yl 4-({2-[(8aR)-octahydropyrrolo[1,2-a]piperazin-2-yl]-4-chlorophenyl}methyl)piperazine-1-carboxylate], the values for the inhibition at 1 µM in assay [1], in assay [2] and in assay [3] were less than 25%, more than 75% and more than 75%, respectively.

`O=C(ON1C(=O)CCC1=O)N1CCN(Cc2cc(Cl)ccc2C(=O)N2CCOCC2)CC1` [Example 199, 2,5-Dioxopyrrolidin-1-yl 4-{[5-chloro-2-(morpholine-4-carbonyl)phenyl]methyl}piperazine-1-carboxylate]: the values for the inhibition at 1 µM in assay [1], in assay [2] and in assay [3] were less than 25%, 25 to 75% and less than 25%, respectively.

For the compound `O=C(ON1C(=O)CCC1=O)N1CCC(C(O)(c2ccc3c(c2)COC3)c2ccc3c(c2)COC3)CC1` [Example 158, 2,5-Dioxopyrrolidin-1-yl 4-[bis(1,3-dihydro-2-benzofuran-5-yl)(hydroxy)methyl]piperidine-1-carboxylate], the inhibition at 1 µM is less than 25% in assay [1], less than 25% in assay [2] and 25 to 75% in assay [3].

As to `O=C(ON1C(=O)CCC1=O)N1CCN(Cc2ccc(Cl)cc2N2CCC3(CCNC3=O)CC2)CC1` [Example 111, 2,5-Dioxopyrrolidin-1-yl 4-[(4-chloro-2-{1-oxo-2,8-diazaspiro[4.51]decan-8-yl}phenyl)methyl]piperazine-1-carboxylate], the results for the inhibition at 1 µM in assay [1], in assay [2] and in assay [3] were less than 25%, 25 to 75% and 25 to 75%, respectively.

For the compound `O=C(ON1C(=O)CCC1=O)N1CCN(Cc2ccc(N3CCOCC3)cc2OC(F)(F)F)CC1` [Example 102, 2,5-Dioxopyrrolidin-1-yl 4-{[4-(morpholin-4-yl)-2-(trifluoromethoxy)phenyl]methyl}piperazine-1-carboxylate], the figures for the inhibition at 1 µM in assay [1], in assay [2] and in assay [3] were less than 25%, 25 to 75% and more than 75%, respectively.

With `C[C@@H]1CN(Cc2ccc(N3CCOCC3)cc2Cl)CCN1C(=O)ON1C(=O)CCC1=O` [Example 96, 2,5-Dioxopyrrolidin-1-yl (2R)-4-{[2-chloro-4-(morpholin-4-yl)phenyl]methyl}-2-methylpiperazine-1-carboxylate], the inhibition at 1 µM in assay [1], in assay [2] and in assay [3] was less than 25% each time.
